Two molecules from patent US6426368B2, “Method for preventing and treating alcoholism” (Warner-Lambert Company, priority 1997, dated 2002) can be followed below.

Holding throughout (assay type): in vivo, rat
Experiment [1] concerns cyclooxygenase product prostaglandin E2 (PGE2). The experiment can be described thus: PGE2 content of gastric mucosa biopsies (ELISA) after indomethacin (Example 3). The note with it: any dose tested (1-200 mg/kg oral). The procedure: Gabapentin or pregabalin (CI-1008) were dissolved in water and administered orally at the following doses: 1, 10, 100, and 200 mg/kg in a volume of 1 mL. Control animals were dosed with an equal volume of vehicle (1 mL of water). Sixty minutes later, all the animals received 1 mL of a solution of indomethacin dissolved in 5% aqueous NaHCO3 (80 mg/kg). Control animals received 1 mL of 5% aqueous NaHCO3 orally. Experimental groups were as follows:
Gastric damage caused by indomethacin correlates with inhibition of the cyclooxygenase product prostaglandin E2 (PGE2). Animals were sacrificed by decapitation 4 hours post-indomethacin administration. The stomach was removed and opened along the greater curvature and its image digitized and stored on an optical disk using a 486-based PC computer equipped with CUE3 system imaging analysis software (Olympus Corp., Marietta, Ga., USA). Two 6-mm biopsies were taken from a constant region of the gastric mucosa located in each side of the glandular portion of the stomach, and their PGE2 content was measured using a commercially available ELISA kit (Assay Designs Inc., Ann Arbor, Mich., USA). The presence of gastric damage was determined using the retrieved electronic image, and the extent of damage was measured using the CUE3 imaging software. Data are expressed as a percent of gastric area damaged and the PGE2 content (pg/mL).

Experiment [2] has as its system rectal distension-induced abdominal contractions. Briefly: Abdominal response induced by rectal distension in rats (basal). As for the experimental part: Male Wistar rats weighing 250 to 350 g were surgically prepared for electromyography, according to a standard technique. Rats were anesthetized by i.p. injection of acepromazine and ketamine (Imalgene 1000, Rhöne-Mérieux, Lyon, France) at doses of 0.6 and 120 mg/kg, respectively. […] Electrodes were exteriorized on the back of the neck and protected by a glass tube attached to the skin. Animals were individually housed in polypropylene cages and kept in a temperature-controlled room (21° C.). They were allowed free access to water and food (UAR pellets, Epinay, France).
Electromyographic recording began 5 days after surgery. The electrical activity of abdominal striated muscles was recorded with an electroencephalograph machine (Mini VIII, Alvar, Paris, France) using a short-time constant (0.03 sec) to remove low-frequency signals (<3 Hz) and a paper speed of 3.6 cm/minute.
Rats were placed in plastic tunnels (6 cm diameter; 25 cm length) where they could not move, escape or turn around, in order to prevent damage to the balloon. They are accustomized to this procedure for 3 or 4 days before rectal distension (RD) in order to minimize stress reaction during experiments. […] The balloon used for distension was an arterial embolectomy catheter (Fogarty, Edwards Laboratories, Inc., Santa Ana, USA). Rectal distension (RD) was performed by insertion of the balloon (2-mm diameter; 2-cm long) in the rectum, at 1 cm of the anus, the catheter being fixed at the tail. It was inflated progressively by steps of 0.4 mL, from 0 to 1.6 mL, each step of inflation lasting 5 minutes. To detect possible leakage, the volume of water introduced in the balloon was checked by complete removal with a syringe at the end of the distension period. […]
(§1) Statistical analysis of the number of abdominal contractions occurring during each 5-minute period during RD was performed by one-way ANOVA followed by Student's paired t-test. Values were expressed as the mean±SEM, and differences were considered significant for p<0.05.

For experiment [3], the system named is lipopolysaccharide-induced delayed rectal allodynia. The experiment can be described thus: LPS-colonic hypersensitivity assay (LPS-induced delayed rectal allodynia). The following applies: 30 mg/kg 30 minutes prior to rectal distension; 12 hours after LPS 1 mg/kg IP; volume 0.4 mL; LPS alone 9.7±1.0, before LPS 3.7±1.0.
Excerpt: The GABA analogs also have been evaluated for their ability to control and treat gastrointestinal disorders characterized as IBD and IBS. The assay utilized to evaluate the GABA analogs measures the effects of compound on lipopolysaccharide-induced delayed rectal allodynia in rats. Intraperitoneal (IP) injections of the endotoxin lipopolysaccharide (LPS) are known to induce long-lasting hyperalgesia in somatic pain models. The following assay LPS-colonic hypersensitivity assay was designed to evaluate the effect of IP injections of LPS on pain visceral threshold in an experimental model of rectal distension.
Male Wistar rats weighing 250 to 350 g were surgically prepared for electromyography, according to a standard technique. […]
Electromyographic recording began 5 days after surgery. The electrical activity of abdominal striated muscles was recorded with an electroencephalograph machine (Mini VIII, Alvar, Paris, France) using a short-time constant (0.03 sec) to remove low-frequency signals (<3 Hz) and a paper speed of 3.6 cm/minute. […]
as §1

The test system of experiment [4] is TNBS-induced colonic allodynia. Briefly: TNBS-induced chronic colonic allodynia in rats, colonic distension threshold. The note with it: for Colonic Threshold: TNBS rats. As for the experimental part: GABA analogs were evaluated in rats suffering from chronic visceral allodynia induced by trinitrobenzene sulfonic acid (TNBS). […] In humans, digestive disorders are often associated with visceral pain. In these pathologies, the visceral pain threshold is decreased, indicating a visceral hypersensitivity. Consequently, the following study was designed to evaluate the effect of injection of TNBS into the colon on visceral pain threshold in an experimental model of colonic distension.
(§2) Male Sprague-Dawley rats weighing 340 to 400 g were used in the study. The animals were housed three per cage in a regulated environment (20±1° C., 50±5% humidity, with light 8:00 AM to 8:00 PM). Under anethesia (ketamine 80 mg/kg i.p.; acepromazin 12 mg/kg i.p.), TNBS (50 mg/kg), or saline (1.5 mL/kg) was injected into the proximal colon (1 cm from the cecum). After the surgery, animals were individually housed in the regulated environment.
(§3) A balloon catheter (5-6 cm length) was inserted through the anus into the colon and kept in position (tip of balloon 5 cm from the anus) by taping the catheter to the base of the tail. The balloon was progressively inflated by step of 5 mm Hg, from 0 to 75 mm Hg, each step of inflation lasting 30 seconds. Each cycle of colonic distension was controlled by a standard barostat. The threshold corresponds to the pressure which produced the first abdominal contraction, at which time the cycle of distension was discontinued. To determine the colonic threshold, four cycles of distension were performed on the same animal.
In a third series, a group of eight rats treated with TNBS received a subcutaneous (sc) injection of gabapentin or CI-1008 30 minutes prior to initiation of the colonic distension cycle.
All test compounds were dissolved in saline except TNBS. TNBS was dissolved in EtOH 30% (w/v). Subcutaneous injection of vehicle was given in a volume of […].
Statistical significance between each group was determined using a one-way ANOVA followed by Student's unpaired t-test. Differences were considered statistically significant at p<0.05.
(§4) Pain threshold (pressure of distension inducing the first abdominal contraction) after distal colonic distension was determined at Day 7 in two groups of awake rats: control animals and TNBS-treated animals. […] Inflammatory parameters (colon weight, area of hyperemia and necrosis and colonic myeloperoxidase content) were measured in the proximal colon at Day 7 after TNBS treatment.

A further experiment concerns colonic pain threshold. Briefly: Colonic pain threshold in normal rats (colonic distension). The note with it: control animals. As for the experimental part:
as §2, §3

In experiment [5] the test system is colonic inflammatory effect of TNBS. The experiment can be described thus: Colonic inflammatory parameters after TNBS in rats. The following applies: gabapentin 100-500 mg/kg sc, CI-1008 30-200 mg/kg sc; Day 7 after TNBS. As for the experimental part: as §4
Gabapentin (100, 300, and 500 mg/kg sc) and CI-1008 (30, 60, 100, and 200 mg/kg sc) were administered 30 minutes before colonic distension and measurement of the inflammatory parameters.

Experiment [6] deals with intracolonic formalin-induced pain. The experiment can be described thus: Formalin-induced inflammatory colonic pain in rats. The following applies: gabapentin 100, 300, 500 mg/kg sc; CI-1008 100, 200 mg/kg sc. As for the experimental part:
Administration of formalin into the wall of the rat colon causes acute inflammation and visceral pain. The aim of this study was to evaluate the antinociceptive activity of gabapentin and CI-1008 in visceral pain induced by colonic intrapariental injection of formalin.
Adult female Sprague-Dawley rats weighing 240 to 260 g were used in the study. The animals were housed three per cage in a regulated environment (20±1° C., 50±5% humidity, with light 8:00 AM to 8:00 PM) prior to use in the test.
Each test animal was placed in a transparent plastic cage (27×43×28 cm) with a layer of wood shavings on the floor. Drinking water was available. […] The injection site and the zone of diffusion of Evans Blue were recorded by image analysis software. […]
As listed in increasing order of pain intensity, these behaviors were: (i) abdominal licking and nibbling (L), (ii) body stretching, i.e., backward extension of the hind limbs (B), (iii) contraction of the flanks, sometimes evolving to a stretching attitude (C), and (iv) whole body contraction, the rat standing with its back curved, occasionally further graded according to the duration of the given episode: W1 for less than 30 seconds, W2 between 30 seconds and 1 minute, and W3 for more than 1 minute. Behaviors were recorded for each animal throughout the 2-hour test on individual charts. […]

On to `CC(C)C[C@H](CN)CC(=O)O` [CI-1008, (S)-3-(aminomethyl)-5-methylhexanoic acid], for which the “modification of indomethacin inhibition of PGE2” value in experiment [1] is reported as “Neither gabapentin nor CI-1008, at any dose tested, were able to significantly modify this effect”. Besides, the “number of cramps on rectal distension” value in experiment [2] (10 mg/kg injected 120 minutes before rectal distension, all distension volumes) is reported as “had a similar effect at all distension volumes”; in experiment [2] (30 mg/kg injected 120 minutes before rectal distension, all distension volumes), “had a similar effect at all distension volumes”; in experiment [2] (30 mg/kg, distension volumes of 0.4 and 0.8 mL) it was “reduced the number of cramps”. In experiment [3], the “number of abdominal contractions” value was found to be 1.8±0.9. Moreover, the “Colonic Threshold” value in experiment [4] (30 mg/kg sc 30 min before distension, TNBS 17.81, Sham 33.44, Control 43.39) was 21.72 mm Hg; in experiment [4] (60 mg/kg sc, TNBS 17.81, Control 43.39), 25.47 mm Hg. Further, in experiment [4] (100 mg/kg sc), the “allodynia induced by TNBS” value is given as “completely suppressed”. Moreover, in experiment [4] (gabapentin 100, 300, 500 mg/kg sc, CI-1008 30, 60, 100, 200 mg/kg sc, 30 minutes before colonic distension), the “inhibition of TNBS-induced colonic allodynia / decrease in pain threshold (dose relation)” value is given as “dose-related inhibition”. Besides, in the experiment with colonic pain threshold (200 mg/kg sc), the “colonic pain threshold in normal conditions” value is given as “neither gabapentin (500 mg/kg sc) nor CI-1008 (200 mg/kg sc) modified the colonic pain threshold”. Further, the “colonic inflammatory effect of TNBS (colon weight, hyperemia, necrosis, myeloperoxidase)” value in experiment [5] was “neither gabapentin nor CI-1008 inhibited the colonic inflammatory effect of TNBS”. Moreover, the “pain score induced by intracolonic formalin” value in experiment [6] was “significantly and dose-dependently decreased the pain score”.

For the molecule `CN1CC[C@]23c4c5ccc(O)c4O[C@H]2[C@@H](O)C=C[C@H]3[C@H]1C5` [Morphine], the “TNBS-induced decrease in pain threshold after colonic distension” value in experiment [4] (0.1 mg/kg sc) was “completely suppressed”. The “colonic pain threshold in normal conditions” value in the experiment with colonic pain threshold (0.3 mg/kg sc) is given as “significantly increased the colonic pain threshold”.
